From US9169247B2, “Tetrahydro-beta-carboline derivatives, synthesis and use thereof” (Southern Research Institute, priority 2009, dated 2015) come the findings set out here.

One data set concerns ZR75-1. The data set can be described thus: Growth assay (Cell Titer Glo). Format: cell-based. Conditions: Homo sapiens, ZR-75-1; ZR75-1 breast; 72 h. How it is done:
(§1) Compounds 2a-h were tested for tumor cell growth inhibitory activity using the human breast MDA-MB-231 and ZR75-1 tumor cell lines and the colon CACO-2, SW-1116, and HT-29 tumor cell lines.
(§2) All human tumor cell lines were obtained from ATCC and grown under standard cell culture conditions at 37° C. in a humidified atmosphere with 5% CO2. Cells were grown in RPMI 1640 supplemented with 5% fetal bovine serum 2 mM glutamine, 100 units/ml penicillin, 100 units/ml streptomycin, and 0.25 μg/ml amphotericin. Cells were harvested at 70 to 90% confluence with trypsin/EDTA and used immediately Cell count and viability was determined by Trypan blue staining followed by hemocytometry. Only cultures displaying >95% cell viability were used for experiments. HMEC were grown according to the specifications from the supplier (Lonzo).
(§3) Tissue culture microtiter 96-well plates were seeded with cells at a density of 5,000 cells/well. The plates were incubated for 18-24 hours prior to any treatment. All test compounds were solubilized in 100% DMSO and diluted with media to obtain a final DMSO concentration of 0.1%. Cell viability was measured 72 hours after treatment by the Cell Titer Glo Assay (Promega), which is a luminescent assay that is an indicator of live cells as a function of metabolic activity and ATP content. The assay was performed according to manufacturer's specifications. Luminescence was measured by a Perkin Elmer Victor® multi-label plate reader.^6
(§4) Dose response curves were analyzed using Prism™ 4 software (GraphPad) to calculate IC50 values using a four parameter logistic equation.
Background: In ATP-based viability assays light output follows the ATP content of the culture.

The subject of the next data set is CACO-2. The data set can be described thus: Growth assay (Cell Titer Glo). The note with it: Homo sapiens; CACO-2 colon; 72 h. Type of data set: cell-based. The method, then:
as §1, §2, §3, §4

A further data set has as its system SW1116. Nature of the data set: Growth assay (Cell Titer Glo). Conditions: Homo sapiens, SW 1116; SW1116 colon; 72 h. Format: cell-based. The method, then: as §1, §2, §3, §4
Data set [1] concerns normal human mammary epithelial cells (HMEC). The data set can be described thus: Cytotoxicity to normal cells (growth assay). Format: cell-based. Conditions: up to a concentration of 10 μM. How it is done: as §2, §3
The subject of another data set is SF-539. The data set can be described thus: Growth assay (Cell Titer Glo). Type of data set: cell-based. The note with it: Homo sapiens; SF-539, CNS. In a few lines:
(§5)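 Cells in RPMI 1640 with 5% FBS were seeded at 5,000 cells/well and allowed 18-24 h before compound addition at 0.1% final DMSO. Viability was read by luminescence 72 h after treatment, and IC50 values came from four-parameter logistic fits of dose-response curves.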

In another data set the test system is UACC-257. Nature of the data set: Growth assay (Cell Titer Glo). Format: cell-based. Conditions: Homo sapiens; UACC-257, melanoma. In a few lines:
as §5

The subject of a further data set is NCI-H322M. The data set can be described thus: Growth assay (Cell Titer Glo). Type of data set: cell-based. Conditions: Homo sapiens, lung. In a few lines: as §5
In another data set the test system is NCI-H23. The data set can be described thus: Growth assay (Cell Titer Glo). Type of data set: cell-based. Conditions: Homo sapiens; NCI-H23, lung. In a few lines: as §5
The next data set relates to HCT-116. The data set can be described thus: Growth assay (Cell Titer Glo). Type of data set: cell-based. Conditions: Homo sapiens; HCT-116, colon. In a few lines:
as §5

Another data set deals with LOX IMVI. The data set can be described thus: Growth assay (Cell Titer Glo). Type of data set: cell-based. Conditions: Homo sapiens; LOX IMVI / LOX IMV1, melanoma. In a few lines:
as §5

The next data set deals with NCI-ADR-RES. The data set can be described thus: Growth assay (Cell Titer Glo). Format: cell-based. The note with it: Homo sapiens, multi-drug resistant. In a few lines:
as §5

A further data set deals with RXF-393. Nature of the data set: Growth assay (Cell Titer Glo). Format: cell-based. Conditions: Homo sapiens; RXF-393, renal. In a few lines:
as §5

The test system of the next data set is TK-10. The data set can be described thus: Growth assay (Cell Titer Glo). Type of data set: cell-based. The note with it: Homo sapiens; TK-10, renal. In a few lines: as §5
For data set [2], the system named is human MDA-MB-231 breast tumor cells. The data set can be described thus: cGMP assay (intracellular cGMP, immunoassay). Format: cell-based. Conditions: treated for 30 minutes, FIG. 1. The method, then: FIG. 1A illustrates the induction of intracellular cGMP levels in cultured human MDA-MB-231 breast tumor cells treated for 30 minutes with compound 2f. […] The + indicates the effects of a positive control, sulindac sulfide tested at 100 μM. The cells were treated for 30 minutes prior to measuring intracellular cGMP levels by immunoassay. The * indicates statistical significance with p<0.05.
Cells were seeded at a density of 1×10^6 cells per 10 cm tissue culture dish, incubated for 48 hours, and treated with the specified compound or vehicle control. After 30 minutes of treatment, cells were lysed and assayed for cGMP content using the cGMP Direct Biotrak EIA kit (GE Biosciences). The assay was performed according to the manufacturer's specifications. Optical density was measured at 630 nm using a Synergy4 (BioTek) plate reader.

Another data set deals with cGMP phosphodiesterase. The data set can be described thus: cGMP phosphodiesterase activity in whole cell lysates (fluorescence polarization). Format: biochemical, human. Conditions: lysates from MDA-MB-231 cells treated for 18 hours; FIG. 2. How it is done:
FIG. 2 illustrates cGMP phosphodiesterase inhibitory activity of compound 2f. Whole cell lysates from human MDA-MB-231 breast tumor cells treated for 18 hours with compound 2f were assayed for cGMP phosphodiesterase activity using a fluorescence polarization assay (Molecular Devices Inc).
Background: Fluorescence polarisation rises when a labelled molecule tumbles more slowly, as on binding a larger partner.

Data set [3] has as its system human Caki-1 renal tumor mouse xenograft. Nature of the data set: Caki-1 renal tumor mouse xenograft model. Type of data set: in vivo. The note with it: 10 mg/kg one time per day for 22 days; FIG. 3B. The method, then:
FIGS. 3A-B illustrate the anticancer activity of compound 2j. […] The cells with treated for 72 hours prior to measuring cell viability using the Cell Titer Glo assay (Promega Corp.). […] Tumor bearing mice were treated at a dose of 10 mg/kg one time per day for 22 days.

The next data set concerns SK-MEL-2. Nature of the data set: Growth assay (Cell Titer Glo). The note with it: Homo sapiens; SK-MEL-2, melanoma. Type of data set: cell-based. In a few lines: as §5
Another data set deals with HOP-92. Nature of the data set: Growth assay (Cell Titer Glo). Format: cell-based. Conditions: Homo sapiens; HOP-92, lung. In a few lines:
as §5

The next data set concerns NCI-H522. The data set can be described thus: Growth assay (Cell Titer Glo). Format: cell-based. The note with it: Homo sapiens; NCI-H522, lung. In a few lines: as §5
The test system of the next data set is SK-MEL-5. The data set can be described thus: Growth assay (Cell Titer Glo). Type of data set: cell-based. Conditions: Homo sapiens; SK-MEL-5, melanoma. In a few lines:
as §5

A further data set relates to HCC-2998. The data set can be described thus: Growth assay (Cell Titer Glo). Format: cell-based. Conditions: Homo sapiens; HCC-2998, colon. In a few lines: as §5
The subject of another data set is MDA-MB-468. The data set can be described thus: Growth assay (Cell Titer Glo). Type of data set: cell-based. Conditions: Homo sapiens; MDA-MB-468, breast. In a few lines: as §5
The subject of the next data set is COLO205. Nature of the data set: Growth assay (Cell Titer Glo). Conditions: Homo sapiens, COLO 205; COLO205, colon. Type of data set: cell-based. In a few lines: as §5
In the next data set the test system is A549. The data set can be described thus: Growth assay (Cell Titer Glo). Type of data set: cell-based. The note with it: Homo sapiens; A549, lung. In a few lines:
as §5

The next data set has as its system A498. The data set can be described thus: Growth assay (Cell Titer Glo). Type of data set: cell-based. Conditions: Homo sapiens; A498, renal. In a few lines: as §5
A further data set concerns NCI-H226. The data set can be described thus: Growth assay (Cell Titer Glo). Type of data set: cell-based. The note with it: Homo sapiens; NCI-H226, lung. In a few lines: as §5
The test system of a further data set is BT-549. Nature of the data set: Growth assay (Cell Titer Glo). Type of data set: cell-based. Conditions: Homo sapiens; BT-549, breast. In a few lines:
as §5

Structures are written as SMILES. Entries after “also recorded” stand apart in the source; their conditions may differ. Where only a bound is given, the exact number is not on record here.

On to `COC(=O)[C@H]1Cc2c([nH]c3ccccc23)[C@H](c2cc(OC)ccc2OC)N1C(=O)CCl` [Compound 2f, Methyl (1S,3R)-1-(2,5-dimethoxyphenyl)-2-(2-chloroacetyl)-2,3,4,9-tetrahydro-1H-β-carboline-3-carboxylate], for which the IC50 (usually the concentration needed to halve the response being measured) in the data set with ZR75-1 came to 1.2 µM; in the data set with CACO-2, 0.01 µM; with SW1116 it was 4.4 µM; in the data set with SF-539, 34 nM; in the data set on UACC-257, 5320 nM; with NCI-H322M it was 2460 nM. For the same compound, the IC50 is 13 nM in the data set with NCI-H23; greater than 10000 nM in the data set with HCT-116; 4 nM with LOX IMVI; 23 nM in the data set with NCI-ADR-RES; 3 nM in the data set on RXF-393; 78 nM in the data set on TK-10. Besides, in data set [1], the “cytotoxicity to normal human mammary epithelial cells (HMEC)” value is given as “insensitive; also recorded: no cytotoxicity”. In data set [2], the “intracellular cGMP levels” value is reported as “induction; also recorded: increase”. For the same compound, the “cGMP PDE activity in lysates” value in the data set with cGMP phosphodiesterase was “selectively inhibited”.
Regarding `COC(=O)[C@H]1Cc2c([nH]c3ccccc23)[C@H](c2ccc(Cl)cc2Cl)N1C(=O)CCl` [Compound 2j, (1S,3R) Methyl 1-(2,4-dichlorophenyl)-2-(2-chloroacetyl)-2,3,4,9-tetrahydro-1H-β-carboline-3-carboxylate], in data set [3], the “in vivo tumor growth” value is “strongly suppressed tumor growth; also recorded: strong in vivo antitumor activity”. The IC50 was 920 nM with SK-MEL-2; 160 nM in the data set on SF-539; greater than 3000 nM in the data set with UACC-257; greater than 3000 nM with NCI-H322M; greater than 3000 nM in the data set on NCI-H23; 20 nM in the data set on HOP-92. In addition, the IC50 was 16 nM in the data set on NCI-H522; greater than 3000 nM with SK-MEL-5; greater than 3000 nM in the data set with HCT-116; 2260 nM with HCC-2998; 130 nM in the data set on MDA-MB-468; 1440 nM in the data set on COLO205. Also, the IC50 is less than 1 nM with LOX IMVI; greater than 3000 nM in the data set with A549; 96 nM with A498; 20 nM in the data set with NCI-ADR-RES; 15 nM with RXF-393; 200 nM in the data set with TK-10. For the same compound, the half-maximal inhibitory concentration (IC50) was found to be 1410 nM with NCI-H226 and 760 nM with BT-549.
